Values quoted from earlier work as cited in patent US20170368150A1, “METHODS OF TREATING PULMONARY SARCOIDOSIS” (GOTHAM BIOPHARMACEUTICALS, INC., priority 2014, published 2017).

Experiments:
[1] = tested on: persons with pulmonary sarcoidosis; settings: clinical trials
[2] = tested on: sarcoidosis patients; settings: human, in vivo
[3] = tested on: people with uveal sarcoidosis; settings: in vivo

## golimumab
[1]
  efficacy in pulmonary sarcoidosis: failed to show any benefit

## Infliximab
[1]
  efficacy in pulmonary sarcoidosis: some success

## Adalimumab
[2]
  fraction of sarcoidosis patients with beneficial response: about half

## Etanercept
[3]
  efficacy in uveal sarcoidosis: failed to demonstrate any significant efficacy
